Measured values as given in the NIST ThermoML archive (doi:10.1016/j.fluid.2014.04.002).

Experiment: xn = mol fraction of the nth substance listed
Settings: 101 kPa, Liquid; for viscosity: Concentric cylinders viscometry; for mass density: Vibrating tube method

CCOC(=O)C(C)O (stereo not drawn) [DL-ethyl lactate] + CC(O)CO
Settings	mass density [kg/m3]	viscosity [mPa·s]
288.15 K, x1 = 0.1	1039.89	49.88
288.15 K, x1 = 0.2	1039.87	30.87
288.15 K, x1 = 0.3	1039.88	21.2
288.15 K, x1 = 0.3999	1039.91	14.75
288.15 K, x1 = 0.4998	1039.94	10.62
288.15 K, x1 = 0.599	1039.96	7.616
288.15 K, x1 = 0.6999	1039.9	6.169
288.15 K, x1 = 0.7994	1039.72	4.764
288.15 K, x1 = 0.8997	1039.32	4.114
288.15 K, x1 = 1	1039.28	3.207
293.15 K, x1 = 0.1	1036.36	36.91
293.15 K, x1 = 0.2	1035.81	23.41
293.15 K, x1 = 0.3	1035.6	16.34
293.15 K, x1 = 0.3999	1035.44	11.64
293.15 K, x1 = 0.4998	1035.3	8.236
293.15 K, x1 = 0.599	1035.15	6.227
293.15 K, x1 = 0.6999	1034.93	5.098
293.15 K, x1 = 0.7994	1034.57	4.153
293.15 K, x1 = 0.8997	1034.01	3.478
293.15 K, x1 = 1	1033.84	2.75
298.15 K, x1 = 0.1	1032.13	27.72
298.15 K, x1 = 0.2	1031.64	18.11
298.15 K, x1 = 0.3	1031.2	12.87
298.15 K, x1 = 0.3999	1030.83	9.303
298.15 K, x1 = 0.4998	1030.52	6.75
298.15 K, x1 = 0.599	1030.23	5.172
298.15 K, x1 = 0.6999	1029.94	4.274
298.15 K, x1 = 0.7994	1029.58	3.521
298.15 K, x1 = 0.8997	1029.08	2.978
298.15 K, x1 = 1	1028.39	2.39
303.15 K, x1 = 0.1	1028.31	21.49
303.15 K, x1 = 0.2	1027.6	14.26
303.15 K, x1 = 0.3	1026.98	10.37
303.15 K, x1 = 0.3999	1026.44	7.605
303.15 K, x1 = 0.4998	1025.95	5.615
303.15 K, x1 = 0.599	1025.46	4.35
303.15 K, x1 = 0.6999	1024.89	3.632
303.15 K, x1 = 0.7994	1024.21	3.021
303.15 K, x1 = 0.8997	1023.32	2.582
303.15 K, x1 = 1	1022.92	2.097
308.15 K, x1 = 0.1	1024.23	16.84
308.15 K, x1 = 0.2	1023.36	11.41
308.15 K, x1 = 0.3	1022.6	8.434
308.15 K, x1 = 0.3999	1021.9	6.292
308.15 K, x1 = 0.4998	1021.21	4.739
308.15 K, x1 = 0.599	1020.5	3.704
308.15 K, x1 = 0.6999	1019.72	3.118
308.15 K, x1 = 0.7994	1018.88	2.626
308.15 K, x1 = 0.8997	1017.93	2.259
308.15 K, x1 = 1	1017.42	1.858
313.15 K, x1 = 0.1	1020.4	13.41
313.15 K, x1 = 0.2	1019.26	9.264
313.15 K, x1 = 0.3	1018.24	6.949
313.15 K, x1 = 0.3999	1017.32	5.27
313.15 K, x1 = 0.4998	1016.47	4.04
313.15 K, x1 = 0.599	1015.64	3.187
313.15 K, x1 = 0.6999	1014.75	2.706
313.15 K, x1 = 0.7994	1013.74	2.302
313.15 K, x1 = 0.8997	1012.53	1.995
313.15 K, x1 = 1	1011.9	1.658
318.15 K, x1 = 0.1	1016.39	10.83
318.15 K, x1 = 0.2	1015.04	7.619
318.15 K, x1 = 0.3	1013.82	5.804
318.15 K, x1 = 0.3999	1012.72	4.465
318.15 K, x1 = 0.4998	1011.69	3.482
318.15 K, x1 = 0.599	1010.69	2.767
318.15 K, x1 = 0.6999	1009.63	2.368
318.15 K, x1 = 0.7994	1008.46	2.034
318.15 K, x1 = 0.8997	1007.1	1.774
318.15 K, x1 = 1	1006.36	1.491
323.15 K, x1 = 0.1	1012.34	8.86
323.15 K, x1 = 0.2	1010.78	6.34
323.15 K, x1 = 0.3	1009.36	4.904
323.15 K, x1 = 0.3999	1008.08	3.824
323.15 K, x1 = 0.4998	1006.88	3.03
323.15 K, x1 = 0.599	1005.71	2.423
323.15 K, x1 = 0.6999	1004.48	2.09
323.15 K, x1 = 0.7994	1003.15	1.81
323.15 K, x1 = 0.8997	1001.64	1.589
323.15 K, x1 = 1	1000.79	1.349

CCOC(=O)C(C)O (stereo not drawn) [DL-ethyl lactate] + OCCCO
Settings	mass density [kg/m3]	viscosity [mPa·s]
288.15 K, x1 = 0.1001	1056.19	51.26
288.15 K, x1 = 0.2001	1055.73	38.55
288.15 K, x1 = 0.3	1054.58	28.06
288.15 K, x1 = 0.3998	1053.41	20.15
288.15 K, x1 = 0.4996	1051.81	14.63
288.15 K, x1 = 0.5997	1049.85	10.55
288.15 K, x1 = 0.7	1047.67	7.714
288.15 K, x1 = 0.8	1045.16	5.639
288.15 K, x1 = 0.8997	1042.56	4.327
288.15 K, x1 = 1	1039.28	3.207
293.15 K, x1 = 0.1001	1052.84	40.04
293.15 K, x1 = 0.2001	1052.12	30.14
293.15 K, x1 = 0.3	1050.74	22.16
293.15 K, x1 = 0.3998	1049.3	16.06
293.15 K, x1 = 0.4996	1047.46	11.78
293.15 K, x1 = 0.5997	1045.28	8.579
293.15 K, x1 = 0.7	1042.88	6.35
293.15 K, x1 = 0.8	1040.14	4.704
293.15 K, x1 = 0.8997	1037.34	3.583
293.15 K, x1 = 1	1033.84	2.75
298.15 K, x1 = 0.1001	1049.47	31.54
298.15 K, x1 = 0.2001	1048.48	23.97
298.15 K, x1 = 0.3	1046.87	17.76
298.15 K, x1 = 0.3998	1045.13	12.92
298.15 K, x1 = 0.4996	1043.1	9.585
298.15 K, x1 = 0.5997	1040.69	7.071
298.15 K, x1 = 0.7	1038.07	5.296
298.15 K, x1 = 0.8	1035.11	3.974
298.15 K, x1 = 0.8997	1032.1	3.071
298.15 K, x1 = 1	1028.39	2.39
303.15 K, x1 = 0.1001	1046.08	25.3
303.15 K, x1 = 0.2001	1044.83	19.39
303.15 K, x1 = 0.3	1042.98	14.35
303.15 K, x1 = 0.3998	1041.02	10.58
303.15 K, x1 = 0.4996	1038.71	7.942
303.15 K, x1 = 0.5997	1036.07	5.912
303.15 K, x1 = 0.7	1033.23	4.482
303.15 K, x1 = 0.8	1030.05	3.405
303.15 K, x1 = 0.8997	1026.83	2.661
303.15 K, x1 = 1	1022.92	2.097
308.15 K, x1 = 0.1001	1042.68	20.61
308.15 K, x1 = 0.2001	1041.16	15.81
308.15 K, x1 = 0.3	1039.07	11.84
308.15 K, x1 = 0.3998	1036.66	8.791
308.15 K, x1 = 0.4996	1034.3	6.65
308.15 K, x1 = 0.5997	1031.42	5.009
308.15 K, x1 = 0.7	1028.37	3.833
308.15 K, x1 = 0.8	1024.96	2.944
308.15 K, x1 = 0.8997	1021.54	2.329
308.15 K, x1 = 1	1017.42	1.858
313.15 K, x1 = 0.1001	1039.25	16.9
313.15 K, x1 = 0.2001	1037.46	13.04
313.15 K, x1 = 0.3	1035.13	9.826
313.15 K, x1 = 0.3998	1032.52	7.365
313.15 K, x1 = 0.4996	1029.86	5.624
313.15 K, x1 = 0.5997	1026.75	4.28
313.15 K, x1 = 0.7	1023.48	3.308
313.15 K, x1 = 0.8	1019.84	2.57
313.15 K, x1 = 0.8997	1016.22	2.056
313.15 K, x1 = 1	1011.9	1.658
318.15 K, x1 = 0.1001	1035.8	14
318.15 K, x1 = 0.2001	1033.74	10.86
318.15 K, x1 = 0.3	1031.16	8.236
318.15 K, x1 = 0.3998	1028.33	6.232
318.15 K, x1 = 0.4996	1025.39	4.805
318.15 K, x1 = 0.5997	1022.05	3.691
318.15 K, x1 = 0.7	1018.55	2.883
318.15 K, x1 = 0.8	1014.69	2.263
318.15 K, x1 = 0.8997	1010.87	1.83
318.15 K, x1 = 1	1006.36	1.491
323.15 K, x1 = 0.1001	1032.33	11.78
323.15 K, x1 = 0.2001	1030	9.189
323.15 K, x1 = 0.3	1027.16	7.027
323.15 K, x1 = 0.3998	1024.09	5.361
323.15 K, x1 = 0.4996	1020.89	4.174
323.15 K, x1 = 0.5997	1017.32	3.235
323.15 K, x1 = 0.7	1013.6	2.551
323.15 K, x1 = 0.8	1009.51	2.023
323.15 K, x1 = 0.8997	1005.5	1.648
323.15 K, x1 = 1	1000.79	1.349
